From patent US20110313046A1, “COMBINATION THERAPY WITH LISDEXAMPHETAMINE AND EXTENDED RELEASE GUANFACINE” (priority 2010, published 2011)
Like-named read-outs stand apart in the source and are kept apart here.

Columns and labels:
[1] = d-Amphetamine plasma pharmacokinetics, crossover drug-drug interaction study; format: in vivo, healthy adults
Procedure: (§1) An open-label, randomized, single-center, 3-period, crossover, drug-drug interaction study in 42 healthy adults (18-45 years old) was performed. Subjects received three single, oral dose treatments: 4 mg extended release guanfacine, 50 mg lisdexamphetmaine, and 4 mg extended release guanfacine in combination with 50 mg lisdexamphetmaine. Subjects underwent the three treatment periods with a 7-day washout between each treatment.

[2] = Lisdexamphetamine plasma pharmacokinetics, crossover drug-drug interaction study; format: in vivo, healthy adults; parameters: lisdexamphetamine plasma concentration, Mean / lisdexamphetamine plasma concentration, Median / lisdexamphetamine plasma concentration, Min / lisdexamphetamine plasma concentration, Max: unit not given here; conditions: for AUC / AUC(0-t) / Cmax / Tmax / Vd/F / CL/F: po, 50 mg
Procedure: as §1

[3] = Adverse events and safety, crossover drug-drug interaction study; format: in vivo, healthy adults; conditions: TEAEs by treatment; single oral dose (SPD503 4 mg, VYVANSE 50 mg)
Procedure: A “treatment-emergent adverse event” (TEAE) is an AE that occurred or worsened during the on-treatment period.
A “non-treatment-emergent adverse event” is an AE that occurred during the pre-treatment period or the post-treatment period.
as §1

CYP450 system = conditions: cited from earlier work
[4] = Guanfacine plasma pharmacokinetics, crossover drug-drug interaction study; parameters: species or system healthy adults; conditions: human, in vivo
Procedure: as §1

CYP3A4 = CYP3A4 (Homo sapiens, UniProt P08684); conditions: cited from earlier work
[5] = young intact rhesus monkeys; cited from earlier work
[6] = single oral dose 50 mg, weight normalized
[7] = time 0.5, single oral dose 50 mg
[8] = time 1.5, single oral dose 50 mg
[9] = time 12, single oral dose 50 mg
[10] = time 24, single oral dose 50 mg
[11] = time 30, single oral dose 50 mg
[12] = time 48, single oral dose 50 mg
[13] = time 72, single oral dose 50 mg

Chain of CYP3A4 (P08684 whole entry, species assumed): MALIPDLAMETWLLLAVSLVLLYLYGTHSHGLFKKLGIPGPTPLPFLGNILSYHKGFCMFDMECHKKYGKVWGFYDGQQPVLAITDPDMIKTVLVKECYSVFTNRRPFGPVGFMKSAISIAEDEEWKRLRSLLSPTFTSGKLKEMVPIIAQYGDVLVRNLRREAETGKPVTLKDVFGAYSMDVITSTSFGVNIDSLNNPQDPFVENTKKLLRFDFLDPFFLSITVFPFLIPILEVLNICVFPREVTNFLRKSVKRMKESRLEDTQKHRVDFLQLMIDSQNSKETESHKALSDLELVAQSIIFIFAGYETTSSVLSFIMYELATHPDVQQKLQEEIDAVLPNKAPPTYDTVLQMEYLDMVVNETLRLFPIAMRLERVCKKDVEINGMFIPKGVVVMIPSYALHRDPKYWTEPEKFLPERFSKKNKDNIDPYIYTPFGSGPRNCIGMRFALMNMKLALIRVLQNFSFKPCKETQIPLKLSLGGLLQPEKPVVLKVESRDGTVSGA

SMILES: C[C@@H](Cc1ccccc1)NC(=O)[C@@H](N)CCCCN [VYVANSE Alone, lisdexamphetamine dimesylate]
- mean d-amphetamine plasma concentrations, alone compared with co-administration ([1]; FIG. 2): essentially identical
- weight normalized CL/F, alone compared with combination ([1]; between the two treatments): essentially the same
- mean lisdexamphetamine plasma concentrations, alone compared with co-administration ([2]; FIG. 3): essentially identical
- AUC ([2]; human, plasma, single oral dose 50 mg, read-out: lisdexamphetamine AUCinfo, Geo Mean): 32.4 ng·h/mL
- AUC ([2]; human, plasma, single oral dose 50 mg, read-out: lisdexamphetamine AUCinfo, Mean): 36.1 ng·h/mL
- AUC ([2]; human, plasma, single oral dose 50 mg, read-out: lisdexamphetamine AUCinfo, Median): 33.2 ng·h/mL
- AUC(0-t) ([2]; human, plasma, single oral dose 50 mg, read-out: lisdexamphetamine AUClast, Geo Mean): 28.3 ng·h/mL
- AUC(0-t) ([2]; human, plasma, single oral dose 50 mg, read-out: lisdexamphetamine AUClast, Mean): 32.1 ng·h/mL
- AUC(0-t) ([2]; human, plasma, single oral dose 50 mg, read-out: lisdexamphetamine AUClast, Median): 27.2 ng·h/mL
- Cmax ([2]; human, plasma, single oral dose 50 mg, read-out: lisdexamphetamine Cmax, Geo Mean): 22.5 ng/mL
- Cmax ([2]; human, plasma, single oral dose 50 mg, read-out: lisdexamphetamine Cmax, Mean): 26.1 ng/mL
- Cmax ([2]; human, plasma, single oral dose 50 mg, read-out: lisdexamphetamine Cmax, Median): 25.2 ng/mL
- Tmax ([2]; human, plasma, single oral dose 50 mg, read-out: lisdexamphetamine Tmax, Geo Mean): 1.1 h
- Tmax ([2]; human, plasma, single oral dose 50 mg, read-out: lisdexamphetamine Tmax, Mean): 1.1 h
- Tmax ([2]; human, plasma, single oral dose 50 mg, read-out: lisdexamphetamine Tmax, Median): 1 h
- Vd/F ([2]; human, plasma, single oral dose 50 mg, read-out: lisdexamphetamine VZ/F, Geo Mean): 1090 L
- Vd/F ([2]; human, plasma, single oral dose 50 mg, read-out: lisdexamphetamine VZ/F, Mean): 1270 L
- Vd/F ([2]; human, plasma, single oral dose 50 mg, read-out: lisdexamphetamine VZ/F, Median): 1040 L
- CL/F ([2]; human, plasma, single oral dose 50 mg, weight normalized, read-out: lisdexamphetamine CL/F, Geo Mean (converted)): 339 mL/min/kg
- CL/F ([2]; human, plasma, single oral dose 50 mg, weight normalized, read-out: lisdexamphetamine CL/F, Mean (converted)): 362 mL/min/kg
- CL/F ([2]; human, plasma, single oral dose 50 mg, weight normalized, read-out: lisdexamphetamine CL/F, Median (converted)): 345 mL/min/kg
- Vd/F ([2]; human, plasma, single oral dose 50 mg, weight normalized, read-out: lisdexamphetamine VZ/F, Geo Mean): 14.4 L/kg
- Vd/F ([2]; human, plasma, single oral dose 50 mg, weight normalized, read-out: lisdexamphetamine VZ/F, Mean): 16 L/kg
- Vd/F ([2]; human, plasma, single oral dose 50 mg, weight normalized, read-out: lisdexamphetamine VZ/F, Median): 13.7 L/kg
- half-life ([2]; human, plasma, single oral dose 50 mg, read-out: lisdexamphetamine T1/2, Mean (converted)): 0.5 h
- lisdexamphetamine AUCinfo, Max ([2]; single oral dose 50 mg): 95.6 ng·h/mL
- lisdexamphetamine AUCinfo, Min ([2]; single oral dose 50 mg): 14.2 ng·h/mL
- lisdexamphetamine AUClast, Max ([2]; single oral dose 50 mg): 94.3 ng·h/mL
- lisdexamphetamine AUClast, Min ([2]; single oral dose 50 mg): 10.2 ng·h/mL
- lisdexamphetamine CL/F, Geo Mean ([2]; single oral dose 50 mg): 1543 L/h
- lisdexamphetamine CL/F, Max ([2]; single oral dose 50 mg): 3523.94 L/h
- lisdexamphetamine CL/F, Mean ([2]; single oral dose 50 mg): 1701.28 L/h
- lisdexamphetamine CL/F, Median ([2]; single oral dose 50 mg): 1504.94 L/h
- lisdexamphetamine CL/F, Min ([2]; single oral dose 50 mg): 522.89 L/h
- lisdexamphetamine Cmax, Max ([2]; single oral dose 50 mg): 82.37 ng/mL
- lisdexamphetamine Cmax, Min ([2]; single oral dose 50 mg): 5.87 ng/mL
- lisdexamphetamine T1/2, Geo Mean ([2]; single oral dose 50 mg): 0.5 h
- lisdexamphetamine T1/2, Max ([2]; single oral dose 50 mg): 0.8 h
- lisdexamphetamine T1/2, Min ([2]; single oral dose 50 mg): 0.3 h
- lisdexamphetamine Tmax, Max ([2]; single oral dose 50 mg): 1.5 h
- lisdexamphetamine Tmax, Min ([2]; single oral dose 50 mg): 1 h
- lisdexamphetamine CL/F, Max [2, 6]: 660.7 mL/min/kg
- lisdexamphetamine CL/F, Min [2, 6]: 115 mL/min/kg
- lisdexamphetamine plasma concentration, Max ([2]; time 0, single oral dose 50 mg): 0
- lisdexamphetamine plasma concentration, Mean ([2]; time 0, single oral dose 50 mg): 0
- lisdexamphetamine plasma concentration, Median ([2]; time 0, single oral dose 50 mg): 0
- lisdexamphetamine plasma concentration, Min ([2]; time 0, single oral dose 50 mg): 0
- lisdexamphetamine plasma concentration, Max [2, 7]: 54.99
- lisdexamphetamine plasma concentration, Mean [2, 7]: 8.5483
- lisdexamphetamine plasma concentration, Median [2, 7]: 4.51
- lisdexamphetamine plasma concentration, Min [2, 7]: 0
- lisdexamphetamine plasma concentration, Max ([2]; time 1, single oral dose 50 mg): 82.37
- lisdexamphetamine plasma concentration, Mean ([2]; time 1, single oral dose 50 mg): 24.921
- lisdexamphetamine plasma concentration, Median ([2]; time 1, single oral dose 50 mg): 23.56
- lisdexamphetamine plasma concentration, Min ([2]; time 1, single oral dose 50 mg): 4.5
- lisdexamphetamine plasma concentration, Max [2, 8]: 41.42
- lisdexamphetamine plasma concentration, Mean [2, 8]: 17.7205
- lisdexamphetamine plasma concentration, Median [2, 8]: 15.72
- lisdexamphetamine plasma concentration, Min [2, 8]: 5.87
- lisdexamphetamine plasma concentration, Max ([2]; time 2, single oral dose 50 mg): 19.94
- lisdexamphetamine plasma concentration, Mean ([2]; time 2, single oral dose 50 mg): 9.0166
- lisdexamphetamine plasma concentration, Median ([2]; time 2, single oral dose 50 mg): 8.17
- lisdexamphetamine plasma concentration, Min ([2]; time 2, single oral dose 50 mg): 2.42
- lisdexamphetamine plasma concentration, Max ([2]; time 3, single oral dose 50 mg): 6.32
- lisdexamphetamine plasma concentration, Mean ([2]; time 3, single oral dose 50 mg): 1.8902
- lisdexamphetamine plasma concentration, Median ([2]; time 3, single oral dose 50 mg): 1.87
- lisdexamphetamine plasma concentration, Min ([2]; time 3, single oral dose 50 mg): 0
- lisdexamphetamine plasma concentration, Max ([2]; time 4, single oral dose 50 mg): 2.28
- lisdexamphetamine plasma concentration, Mean ([2]; time 4, single oral dose 50 mg): 0.2849
- lisdexamphetamine plasma concentration, Median ([2]; time 4, single oral dose 50 mg): 0
- lisdexamphetamine plasma concentration, Min ([2]; time 4, single oral dose 50 mg): 0
- lisdexamphetamine plasma concentration, Max ([2]; time 6, single oral dose 50 mg): 0
- lisdexamphetamine plasma concentration, Mean ([2]; time 6, single oral dose 50 mg): 0
- lisdexamphetamine plasma concentration, Median ([2]; time 6, single oral dose 50 mg): 0
- lisdexamphetamine plasma concentration, Min ([2]; time 6, single oral dose 50 mg): 0
- lisdexamphetamine plasma concentration, Max ([2]; time 8, single oral dose 50 mg): 0
- lisdexamphetamine plasma concentration, Mean ([2]; time 8, single oral dose 50 mg): 0
- lisdexamphetamine plasma concentration, Median ([2]; time 8, single oral dose 50 mg): 0
- lisdexamphetamine plasma concentration, Min ([2]; time 8, single oral dose 50 mg): 0
- lisdexamphetamine plasma concentration, Max [2, 9]: 0
- lisdexamphetamine plasma concentration, Mean [2, 9]: 0
- lisdexamphetamine plasma concentration, Median [2, 9]: 0
- lisdexamphetamine plasma concentration, Min [2, 9]: 0
- lisdexamphetamine plasma concentration, Max [2, 10]: 0
- lisdexamphetamine plasma concentration, Mean [2, 10]: 0
- lisdexamphetamine plasma concentration, Median [2, 10]: 0
- lisdexamphetamine plasma concentration, Min [2, 10]: 0
- lisdexamphetamine plasma concentration, Max [2, 11]: 0
- lisdexamphetamine plasma concentration, Mean [2, 11]: 0
- lisdexamphetamine plasma concentration, Median [2, 11]: 0
- lisdexamphetamine plasma concentration, Min [2, 11]: 0
- lisdexamphetamine plasma concentration, Max [2, 12]: 0
- lisdexamphetamine plasma concentration, Mean [2, 12]: 0
- lisdexamphetamine plasma concentration, Median [2, 12]: 0
- lisdexamphetamine plasma concentration, Min [2, 12]: 0
- lisdexamphetamine plasma concentration, Max [2, 13]: 0
- lisdexamphetamine plasma concentration, Mean [2, 13]: 0
- lisdexamphetamine plasma concentration, Median [2, 13]: 0
- lisdexamphetamine plasma concentration, Min [2, 13]: 0
- TEAE: Any Event [3]: 8 (19.5) n (%)
- TEAE: Arrhythmia supraventricular [3]: 1 (2.4) n (%)
- TEAE: Cardiac disorders [3]: 3 (7.3) n (%)
- TEAE: Diarrhoea [3]: 0 (0.0) n (%)
- TEAE: Dizziness [3]: 3 (7.3) n (%)
- TEAE: Dizziness postural [3]: 1 (2.4) n (%)
- TEAE: Dry mouth [3]: 1 (2.4) n (%)
- TEAE: Dysmenorrhoea [3]: 1 (2.4) n (%)
- TEAE: Flushing [3]: 0 (0.0) n (%)
- TEAE: Gastrointestinal disorders [3]: 2 (4.9) n (%)
- TEAE: General disorders and administration site conditions [3]: 0 (0.0) n (%)
- TEAE: Headache [3]: 2 (4.9) n (%)
- TEAE: Nausea [3]: 1 (2.4) n (%)
- TEAE: Nervous system disorders [3]: 4 (9.8) n (%)
- TEAE: Nervousness [3]: 2 (4.9) n (%)
- TEAE: Non-cardiac chest pain [3]: 0 (0.0) n (%)
- TEAE: Orthostatic hypotension [3]: 0 (0.0) n (%)
- TEAE: Palpitations [3]: 1 (2.4) n (%)
- TEAE: Paraesthesia [3]: 0 (0.0) n (%)
- TEAE: Psychiatric disorders [3]: 2 (4.9) n (%)
- TEAE: Psychomotor hyperactivity [3]: 1 (2.4) n (%)
- TEAE: Reproductive system and breast disorders [3]: 1 (2.4) n (%)
- TEAE: Supraventricular extrasystoles [3]: 0 (0.0) n (%)
- TEAE: Tachycardia [3]: 1 (2.4) n (%)
- TEAE: Vascular disorders [3]: 0 (0.0) n (%)
- TEAE: Wandering pacemaker [3]: 1 (2.4) n (%)
- induction or inhibition of the CYP450 system (CYP450 system): neither an inducer nor inhibitor
- metabolism by the CYP450 system (CYP450 system): not metabolized by the CYP450 system

SMILES: Cl.N=C(N)NC(=O)Cc1c(Cl)cccc1Cl [guanfacine]
- guanfacine Cmax in combination compared with alone [4]: higher than when administered alone
- metabolism by CYP3A4 (CYP3A4): known to be metabolized by CYP3A4
- delayed response performance [5]: can be improved
